In brackets after ≈: the same amount, converted by molar mass.
Columns and labels:
[1] = test system: activated Her2 (p-Her2); assay: Western blot analysis of activated Her2 protein level; type: cell-based; details: 40 μg/ml, 24 h, normalized to β-acetin
Text: (§1) Effect of actein on the level of Her2 protein: The effect of actein on the level of Her2 and activated Her2 (p-Her2) protein was examined using Western blot analysis. […] The results validate an effect of actein on the Her2 pathway.

[2] = test system: Her2; assay: Western blot analysis of Her2 protein level; type: cell-based; details: 40 μg/ml, 24 h, normalized to β-acetin
Text: as §1

[3] = test system: calcium channels; assay: Calcium release from cells; type: cell-based; details: low concentrations (100 nM); stated as believed mode of action
[4] = test system: MDA-MB-453 cells; assay: Apoptosis: caspase 3 activity; type: cell-based, human; details: actein 2 μg/ml, Herceptin 16 μg/ml, 48 h
[5] = test system: MDA-MB-453 cells; assay: Apoptosis: DNA fragmentation; type: cell-based, human; details: actein 2 μg/ml, Herceptin 16 μg/ml, 48 h
[6] = rat, in vivo, 35.7 mg/kg; cited from earlier work
[7] = test system: MCF10F; assay: Growth inhibition of nonmalignant mammary epithelial cells by actein; type: cell-based, human

CC(=O)O[C@@H]1C[C@@]23C[C@@]24CC[C@H](O[C@@H]2OC[C@@H](O)[C@H](O)[C@H]2O)C(C)(C)[C@@H]4CC[C@H]3[C@]2(C)C[C@@H]3O[C@]4(C[C@@H](C)[C@@H]3[C@@]12C)O[C@H](O)[C@@]1(C)O[C@@H]41 [actein, Actein]
level of p-Her2 protein [1]: 0.37 fold
level of Her2 protein [2]: 0.72 fold
effect on calcium channels [3]: immediately opens calcium channels and releases calcium from cells
caspase 3 activity [4]: 1.29 fold relative to control
DNA fragmentation [5]: 0.89 fold relative to control
peak serum level [6]: about 2.4 μg/ml
time of peak serum level [6]: 6 h
IC50 [7]: 42 µg/mL (≈ 62.1 µM)

— patent publication US9643995B2, “Triterpene glycoside and triterpene compositions and methods of using same” (Research Foundation of the City University of New York, priority 2013, dated 2017)
